For 24 compounds, Kd results are on record in US20250074891A1 (Anaxis Pharma Pty Ltd., priority 2021, published 2025).

What all share (conditions): Table 35
One experiment addresses MLKL (full length) (Homo sapiens (Human), UniProt Q8NB16). The experiment in a line: KINOMEscan binding assay, MLKL (full length). Here is the method:
(§1) Kinase assays. For most assays, kinase-tagged T7 phage strains were grown in parallel in 24-well blocks in an E. coli host derived from the BL21 strain. E. coli were grown to log-phase and infected with T7 phage from a frozen stock (multiplicity of infection=0.4) and incubated with shaking at 32° C. until lysis (90-150 minutes).
(§2) The Hill Slope was set to −1.

The next experiment addresses RIP1 (Homo sapiens (Human), UniProt Q13546). The experiment in a line: KINOMEscan binding assay, RIP1.
In the next experiment the target is RIP3 (Homo sapiens (Human), UniProt Q9Y572). In words: KINOMEscan binding assay, RIP3. Here is the method:
as §1, §2

Some results are limits rather than exact numbers.

Chain of MLKL (full length) (Q8NB16 whole entry): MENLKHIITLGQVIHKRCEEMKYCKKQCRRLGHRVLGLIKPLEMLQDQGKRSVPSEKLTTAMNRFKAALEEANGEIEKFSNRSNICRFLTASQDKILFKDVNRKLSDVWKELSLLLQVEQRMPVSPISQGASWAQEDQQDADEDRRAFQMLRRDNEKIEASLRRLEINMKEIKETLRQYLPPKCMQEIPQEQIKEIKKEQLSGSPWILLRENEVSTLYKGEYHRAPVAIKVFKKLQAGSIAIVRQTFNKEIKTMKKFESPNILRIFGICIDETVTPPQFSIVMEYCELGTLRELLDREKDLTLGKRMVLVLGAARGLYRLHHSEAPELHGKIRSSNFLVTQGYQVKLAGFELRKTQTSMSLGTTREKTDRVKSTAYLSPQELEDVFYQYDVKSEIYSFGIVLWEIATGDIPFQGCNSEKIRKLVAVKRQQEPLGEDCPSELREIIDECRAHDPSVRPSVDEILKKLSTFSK
Chain of RIP1 (Q13546 whole entry): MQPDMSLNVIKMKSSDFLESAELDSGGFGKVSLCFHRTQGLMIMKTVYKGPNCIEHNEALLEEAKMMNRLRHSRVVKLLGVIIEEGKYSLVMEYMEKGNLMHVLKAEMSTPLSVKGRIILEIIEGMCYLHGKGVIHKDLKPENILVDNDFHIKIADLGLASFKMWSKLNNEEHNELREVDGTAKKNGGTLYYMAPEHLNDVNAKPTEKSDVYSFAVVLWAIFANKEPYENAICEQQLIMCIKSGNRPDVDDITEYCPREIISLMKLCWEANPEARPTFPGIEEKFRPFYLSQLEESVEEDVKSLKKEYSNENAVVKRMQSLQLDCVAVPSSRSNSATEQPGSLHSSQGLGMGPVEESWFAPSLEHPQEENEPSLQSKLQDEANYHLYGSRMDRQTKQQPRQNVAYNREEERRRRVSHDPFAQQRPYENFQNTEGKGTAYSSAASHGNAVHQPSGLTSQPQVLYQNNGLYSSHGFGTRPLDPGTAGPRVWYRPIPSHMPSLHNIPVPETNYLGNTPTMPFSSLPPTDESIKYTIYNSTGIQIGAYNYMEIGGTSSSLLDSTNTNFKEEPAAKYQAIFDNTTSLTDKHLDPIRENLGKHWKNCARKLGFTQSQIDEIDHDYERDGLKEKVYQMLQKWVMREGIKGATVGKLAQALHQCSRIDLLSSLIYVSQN
Chain of RIP3 (Q9Y572 whole entry): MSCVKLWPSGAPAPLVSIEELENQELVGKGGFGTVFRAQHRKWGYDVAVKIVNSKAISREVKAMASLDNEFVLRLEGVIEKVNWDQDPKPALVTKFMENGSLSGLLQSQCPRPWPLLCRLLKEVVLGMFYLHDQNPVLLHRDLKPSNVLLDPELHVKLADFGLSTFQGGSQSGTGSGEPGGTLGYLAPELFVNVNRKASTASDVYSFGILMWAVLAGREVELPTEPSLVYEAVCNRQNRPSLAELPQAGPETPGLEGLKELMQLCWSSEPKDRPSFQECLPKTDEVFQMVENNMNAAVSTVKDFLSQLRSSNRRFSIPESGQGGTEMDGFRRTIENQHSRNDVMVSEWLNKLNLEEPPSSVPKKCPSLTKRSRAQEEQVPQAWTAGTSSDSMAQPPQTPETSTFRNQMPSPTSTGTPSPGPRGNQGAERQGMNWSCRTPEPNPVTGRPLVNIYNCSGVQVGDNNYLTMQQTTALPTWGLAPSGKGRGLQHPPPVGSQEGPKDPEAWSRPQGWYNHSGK

In the case of `CCS(=O)(=O)Nc1ccc(-c2n[nH]c(Nc3cnccn3)c2C(N)=O)cc1OCCc1ccccc1` [Compound 210, 3-(4-(ethylsulfonamido)-3-phenethoxyphenyl)-5-(pyrazin-2-ylamino)-1H-pyrazole-4-carboxamide], the results for the dissociation constant (Kd) at MLKL (full length), on RIP1 and at RIP3 were less than 10 nM, greater than 30 µM and greater than 30 µM, respectively.
Turning to `CCS(=O)(=O)Nc1ccc(-c2n[nH]c(Nc3cnccn3)c2C(N)=O)cc1OCCc1ccccc1F` [Compound 211, 3-(4-(ethylsulfonamido)-3-(2-fluorophenethoxy)phenyl)-5-(pyrazin-2-ylamino)-1H-pyrazole-4-carboxamide], the figures for the Kd at MLKL (full length), on RIP1 and at RIP3 were less than 10 nM, greater than 30 µM and greater than 30 µM, respectively.
As to `CCS(=O)(=O)Nc1ccc(-c2n[nH]c(Nc3cc(C(F)(F)F)ccn3)c2C(N)=O)cc1OCc1ccc(F)cc1` [Compound 213], the Kd at MLKL (full length) is 10 to 1000 nM; on RIP1 it was greater than 30 µM; on RIP3, greater than 30 µM.
`NC(=O)c1c(-c2ccc(NS(=O)(=O)C(F)F)c(OCc3ccc(F)cc3)c2)n[nH]c1Nc1cccc(C(F)(F)F)n1` [Compound 217]: the Kd was less than 10 nM at MLKL (full length), greater than 30 µM at RIP1 and greater than 30 µM on RIP3.
As for `CCS(=O)(=O)Nc1ccc(-c2n[nH]c(Nc3cnccn3)c2C(N)=O)cc1OCCc1cccc(F)c1` [Compound 219, 3-(4-(ethylsulfonamido)-3-(3-fluorophenethoxy)phenyl)-5-(pyrazin-2-ylamino)-1H-pyrazole-4-carboxamide], the Kd was less than 10 nM at MLKL (full length), greater than 30 µM on RIP1 and greater than 30 µM on RIP3.
With `COCCOc1cc(Nc2[nH]nc(-c3ccc(NS(=O)(=O)N(C)C)cc3)c2C(N)=O)ccn1` [Compound 221, 3-(4-((N,N-dimethylsulfamoyl)amino)phenyl)-5-((2-(2-methoxyethoxy)pyridin-4-yl)amino)-1H-pyrazole-4-carboxamide], the values for the Kd on MLKL (full length), on RIP1 and at RIP3 were less than 10 nM, greater than 30 µM and greater than 30 µM, respectively.
As to `C[C@H](Oc1cc(-c2n[nH]c(Nc3cnccn3)c2C(N)=O)ccc1NS(=O)(=O)C(F)F)c1ccc(F)cc1` [Compound 223, 3-[4-(difluoromethanesulfonamido)-3-[(1S)-1-(4-fluorophenyl)ethoxy]phenyl]-5-[(pyrazin-2-yl)amino]-1H-pyrazole-4-carboxamide], the Kd on MLKL (full length) was less than 10 nM; on RIP1, greater than 30 µM; at RIP3 it was greater than 30 µM.
On to `NC(=O)c1c(-c2ccc(NS(=O)(=O)CC(F)(F)F)c(OCc3ccc(F)c(Cl)c3)c2)n[nH]c1Nc1cnccn1` [Compound 225, 3-{3-[(3-chloro-4-fluorophenyl)methoxy]-4-(2,2,2-trifluoroethane-sulfonamido)phenyl}-5-[(pyrazin-2-yl)amino]-1H-pyrazole-4-carboxamide], for which the Kd on MLKL (full length) was less than 10 nM; on RIP1, greater than 30 µM; at RIP3 it was greater than 30 µM.
On to `NC(=O)c1c(-c2ccc(NS(=O)(=O)C(F)F)c(OCc3ccc(F)c(F)c3)c2)n[nH]c1Nc1ccccn1` [Compound 226], for which the Kd at MLKL (full length) is less than 10 nM; at RIP1 it was greater than 30 µM; at RIP3 it was greater than 30 µM.
Regarding `NC(=O)c1c(-c2ccc(NS(=O)(=O)CC(F)(F)F)c(OCc3ccccn3)c2)n[nH]c1Nc1cnccn1` [Compound 227, 5-[(pyrazin-2-yl)amino]-3-{3-[(pyridin-2-yl)methoxy]-4-(2,2,2-trifluoroethanesulfonamido)phenyl}-1H-pyrazole-4-carboxamide], the Kd at MLKL (full length) is less than 10 nM; at RIP1, greater than 30 µM; at RIP3, greater than 30 µM.
For the compound `CCS(=O)(=O)Nc1ccc(-c2n[nH]c(Nc3cnccn3)c2C(N)=O)cc1OC(C)(C)c1ccc(F)cc1` [Compound 228, 3-(4-ethanesulfonamido-3-{[2-(4-fluorophenyl)propan-2-yl]oxy}phenyl)-5-[(pyrazin-2-yl)amino]-1H-pyrazole-4-carboxamide], the Kd on MLKL (full length) is less than 10 nM; at RIP1 it was greater than 30 µM; on RIP3, greater than 30 µM.
Turning to `C[C@H](Oc1cc(-c2n[nH]c(Nc3cccc(C(F)(F)F)n3)c2C(N)=O)ccc1NS(=O)(=O)C(F)F)c1ccc(F)cc1` [Compound 229, 3-[4-(difluoromethanesulfonamido)-3-[(1S)-1-(4-fluorophenyl)ethoxy]phenyl]-5-{[6-(trifluoromethyl)pyridin-2-yl]amino}-1H-pyrazole-4-carboxamide], the results for the Kd on MLKL (full length), at RIP1 and on RIP3 were less than 10 nM, greater than 30 µM and greater than 30 µM, respectively.
As for `CCS(=O)(=O)Nc1ccc(-c2n[nH]c(Nc3cnccn3)c2C(N)=O)cc1O[C@@H](C)c1ccccn1` [Compound 230, 3-{4-ethanesulfonamido-3-[(1S)-1-(pyridin-2-yl)ethoxy]phenyl}-5-[(pyrazin-2-yl)amino]-1H-pyrazole-4-carboxamide], the Kd was less than 10 nM on MLKL (full length), greater than 30 µM at RIP1 and greater than 30 µM at RIP3.
Take `NC(=O)c1c(-c2ccc(NS(=O)(=O)CC(F)(F)F)c(OCc3ccc(F)cn3)c2)n[nH]c1Nc1cnccn1` [Compound 231, 3-(3-((5-fluoropyridin-2-yl)methoxy)-4-((2,2,2-trifluoroethyl)sulfonamido)phenyl)-5-(pyrazin-2-ylamino)-1H-pyrazole-4-carboxamide]: the Kd on MLKL (full length) was less than 10 nM; on RIP1, greater than 30 µM; on RIP3 it was greater than 30 µM.
`CCS(=O)(=O)Nc1ccc(-c2n[nH]c(Nc3cnccn3)c2C(N)=O)cc1OC1CCCc2ccccc21` (stereo not drawn) [Compound 232, 3-[4-ethanesulfonamido-3-(1,2,3,4-tetrahydronaphthalen-1-yloxy)phenyl]-5-[(pyrazin-2-yl)amino]-1H-pyrazole-4-carboxamide]: the Kd at MLKL (full length) was less than 10 nM; at RIP1 it was greater than 30 µM; at RIP3, greater than 30 µM.
In the case of `NC(=O)c1c(-c2ccc(NS(=O)(=O)CC(F)(F)F)c(OCc3ccc(Cl)cc3)c2)n[nH]c1Nc1cnc(C(F)(F)F)cn1` [Compound 234, 3-{3-[(4-chlorophenyl)methoxy]-4-(2,2,2-trifluoroethanesulfonamido)phenyl}-5-{[5-(trifluoromethyl)pyrazin-2-yl]amino}-1H-pyrazole-4-carboxamide], the Kd is less than 10 nM at MLKL (full length), greater than 30 µM at RIP1 and greater than 30 µM on RIP3.
For the compound `NC(=O)c1c(-c2ccc(NS(=O)(=O)C(F)F)c(OCc3ccc(Cl)cc3)c2)n[nH]c1Nc1cnc(C(F)(F)F)cn1` [Compound 235, 3-(3-((4-chlorobenzyl)oxy)-4-((difluoromethyl)sulfonamido)phenyl)-5-((5-(trifluoromethyl)pyrazin-2-yl)amino)-1H-pyrazole-4-carboxamide], the values for the Kd on MLKL (full length), on RIP1 and on RIP3 were less than 10 nM, greater than 30 µM and greater than 30 µM, respectively.
With `NC(=O)c1c(-c2ccc(NS(=O)(=O)C(F)F)c(OC(c3ccc(F)cc3)C3CCC3)c2)n[nH]c1Nc1cnccn1` (stereo not drawn) [Compound 236, 3-{3-[cyclobutyl(4-fluorophenyl)methoxy]-4-(difluoromethanesulfonamido)phenyl}-5-[(pyrazin-2-yl)amino]-1H-pyrazole-4-carboxamide], the Kd at MLKL (full length) was less than 10 nM; at RIP1, greater than 30 µM; on RIP3, greater than 30 µM.
On to `N#Cc1cccc(Nc2[nH]nc(-c3ccc(NS(=O)(=O)CC(F)(F)F)cc3)c2C(N)=O)n1` [Compound 237, 5-[(6-cyanopyridin-2-yl)amino]-3-[4-(2,2,2-trifluoroethanesulfonamido)phenyl]-1H-pyrazole-4-carboxamide], for which the Kd is less than 10 nM at MLKL (full length), greater than 30 µM at RIP1 and greater than 30 µM at RIP3.
`NC(=O)c1c(-c2ccc(NS(=O)(=O)CC(F)(F)F)c(OCc3ccc(F)cc3)c2)n[nH]c1Nc1ccccn1` [Compound 239, 3-{3-[(4-fluorophenyl)methoxy]-4-(2,2,2-trifluoroethanesulfonamido)phenyl}-5-[(pyridin-2-yl)amino]-1H-pyrazole-4-carboxamide]: the Kd is less than 10 nM at MLKL (full length), greater than 30 µM at RIP1 and greater than 30 µM at RIP3.
Regarding `NC(=O)c1c(-c2ccc(NS(=O)(=O)CC(F)(F)F)c(OCc3ccc(F)cn3)c2)n[nH]c1Nc1ccccn1` [Compound 240, 3-{3-[(5-fluoropyridin-2-yl)methoxy]-4-(2,2,2-trifluoroethanesulfonamido)phenyl}-5-[(pyridin-2-yl)amino]-1H-pyrazole-4-carboxamide], the figures for the Kd on MLKL (full length), on RIP1 and at RIP3 were less than 10 nM, greater than 30 µM and greater than 30 µM, respectively.
Regarding `CCS(=O)(=O)Nc1ccc(-c2n[nH]c(Nc3ccccn3)c2C(N)=O)cc1OCc1ccc(F)cn1` [Compound 241, 3-{4-ethanesulfonamido-3-[(5-fluoropyridin-2-yl)methoxy]phenyl}-5-[(pyridin-2-yl)amino]-1H-pyrazole-4-carboxamide], the results for the Kd on MLKL (full length), at RIP1 and on RIP3 were less than 10 nM, greater than 30 µM and greater than 30 µM, respectively.
In the case of `CCS(=O)(=O)Nc1ccc(-c2n[nH]c(Nc3cnccn3)c2C(N)=O)cc1OCc1ccc(Cl)cn1` [Compound 242, 3-{3-[(5-chloropyridin-2-yl)methoxy]-4-ethanesulfonamidophenyl}-5-[(pyrazin-2-yl)amino]-1H-pyrazole-4-carboxamide], the figures for the Kd on MLKL (full length), on RIP1 and at RIP3 were less than 10 nM, greater than 30 µM and greater than 30 µM, respectively.
`Cc1cnc(Nc2[nH]nc(-c3ccc(NS(=O)(=O)C(F)F)c(O[C@@H](C)c4ccc(F)cc4)c3)c2C(N)=O)cn1` [Compound 245, 3-[4-(difluoro-methanesulfon-amido)-3-[(1S)-1-(4-fluorophenyl)ethoxy]phenyl]-5-[(5-methylpyrazin-2-yl)amino]-1H-pyrazole-4-carboxamide]: the Kd at MLKL (full length) is less than 10 nM; at RIP1, greater than 30 µM; at RIP3, greater than 30 µM.
